Patent US4939168A, “Discodermolide compounds, compositions containing same and methods of preparation and use” (Harbor Branch Oceanographics Institution, Inc., priority 1989, dated 1990)
In brackets after ≈: the same amount, converted by molar mass.

How the values were obtained:
Format in all cases: cell-based
[1] = viability of human PBL in the Con A and PHA stimulation assays; conditions: peripheral blood lymphocytes, 50 and 25 μg/ml
Protocol: (§1) The pure compound discodermolide I, was tested for immunosuppressive effects on the MLR and LCV assays using murine splenocytes and in the human MLR and mitogen stimulation assays, using human peripheral blood lymphocytes (PBL). Cellular proliferation was determined using incorporation of ^3 H-thymidine.

[2] = viability of cells in the human mixed lymphocyte reaction, M.T.T. metabolism
Protocol: as §1
^2 % Viable cells as measured by M.T.T. metabolism

murine splenocytes [3] = experiment: murine two-way mixed lymphocyte reaction (MLR), 3H-thymidine incorporation
Protocol: as §1

[4] = tested on: murine P388 leukemia cells; experiment: P388 cytotoxicity (antiproliferative effect, MTT); conditions: Mus musculus, 48-h exposure
Protocol: The crude ethanolic extract of the sponge and the pure compound I were tested for toxicity against murine P388 leukemia cells. P388 cells obtained from Dr. J. Mayo, National Cancer Institute, Bethesda, MD, were maintained in Roswell Park Memorial Institute (RPMI) medium 1640 supplemented with 10% horse serum. All cell lines were cultured in plastic tissue culture flasks and kept in an incubator at 37° C. in humidified air containing 5% CO2. Antibiotic-free stock cultures of P388 cells were subcultured to 10^5 cells/ml by dilution in fresh growth medium at 2 to 3 day intervals. The mean generation time of primary cultures was 14 to 17 hr.
To assess the antiproliferative effects of agents against P388 cells, 200 μl cultures (96-well tissue culture plates, Nunc, Denmark) were established at 1×10^5 cells/ml in drug-free medium or medium containing the crude extract at a final dilution of 1:500 or discodermolide at various concentrations. Solvent for all dilutions was methanol, which was removed from plates under vacuum. All experimental cultures were initiated in medium containing Gentamycin sulfate (50 μg/ml; Schering Corporation, Kenilworth, NJ). After 48-h exposures, P388 cells were enumerated using 3-[4,5-Dimethylthiazol-2-yl]-2,5-diphenyltetrazolium bromide (MTT) as described below (M. C. Alley, et al., Cancer Res. 48:589, 1988).
To quantitate the effects on cell proliferation, 75 μl of warm growth medium containing 5 mg/ml MTT was added to each well and cultures were returned to the incubator for 90 minutes. To spectrophotometrically quantitate formation of reduced formazan, plates were centrifuged (900×g, 5 minutes), culture fluids removed by aspiration, and 200 μl of acidified isopropanol (2 ml concentrated HCl/liter isopropanol) added per well. The absorbance of the resulting solutions were measured at 570 nm with a plate reader (MR700 Microplate Reader, Dynatech, Laboratories, Chantilly, Va.). […] A linear relationship between P388 cell number and formazan production was found over the range of cell densities observed in these experiments.

[5] = tested on: human peripheral blood lymphocytes (PBL); experiment: PHA mitogenesis of human lymphocytes (mitogen stimulation assay); conditions: for PHA (counts per minute of incorporated 3H-thymidine): PHA 10.0 μg/ml, control 412200
Protocol: as §1
^2 Counts per minute of incorporated ^3 Hthymidine. Conc. of PHA

[6] = tested on: human peripheral blood lymphocytes (PBL); experiment: human mixed lymphocyte reaction (MLR), 3H-thymidine incorporation; conditions: for CPM (counts per minute of incorporated 3H-thymidine): control 48064
Protocol: as §1
^1 Counts per minute of incorporate ^3 Hthymidine

[7] = tested on: human peripheral blood lymphocytes (PBL); experiment: Con A mitogenesis of human lymphocytes (mitogen stimulation assay); conditions: for Con A (counts per minute of incorporated 3H-thymidine): Con A 10.0 μg/ml, control 262000
Protocol: as §1
^1 Counts per minute of incorporated ^3 Hthymidine. Conc. of Con

murine splenocytes [8] = experiment: murine lymphocyte viability assay (LCV), 3H-thymidine incorporation
Protocol: as §1

[9] = as above; conditions: mouse, splenocytes, read-out: % LCV Control (percent of the control LCV response)
Protocol: as §1

[10] = 50 and 25 μg/ml, mitogen 10 μg/ml

C=C/C=C\C(C)C(OC(N)=O)C(C)C(O)C(C)C/C(C)=C\C(C)C(O)C(C)/C=C\C(O)CC1OC(=O)C(C)C(O)C1C (single isomer, unassigned) [Discodermolide, discodermolide]
viability [1]: > 91% | viability ([2]; peripheral blood lymphocytes, 0.4 μg/ml, read-out: % Viability (% viable cells as measured by M.T.T. metabolism)): 115% | viability ([2]; peripheral blood lymphocytes, 1.6 μg/ml, read-out: % Viability (% viable cells as measured by M.T.T. metabolism)): 110% | viability ([2]; peripheral blood lymphocytes, 3.1 μg/ml, read-out: % Viability (% viable cells as measured by M.T.T. metabolism)): 94% | viability ([2]; peripheral blood lymphocytes, 6.3 μg/ml, read-out: % Viability (% viable cells as measured by M.T.T. metabolism)): 94% | viability ([2]; peripheral blood lymphocytes, 12.5 μg/ml, read-out: % Viability (% viable cells as measured by M.T.T. metabolism)): 94% | viability ([2]; peripheral blood lymphocytes, 25 μg/ml, read-out: % Viability (% viable cells as measured by M.T.T. metabolism)): 102% | viability ([2]; peripheral blood lymphocytes, 50 μg/ml, read-out: % Viability (% viable cells as measured by M.T.T. metabolism)): 204% | viability ([2]; peripheral blood lymphocytes, 50, 25, 12.5, 6.3, 3.1 and 1.6 μg/ml, read-out: viability in the human MLR): > 94% | immunosuppressive activity in the murine MLR (in words) (murine splenocytes [3]; 0.5 μg/ml): immunosuppressive | immunosuppressive activity in the murine MLR (in words) (murine splenocytes [3]; 500, 50 and 5 μg/ml): exhibited immunosuppressive activity | activity at 0.5 µg/mL (murine splenocytes [3]; Mus musculus, Splenocyte, 0.5 μg/ml, read-out: % MLR Control (percent of the control MLR response)): 18% | activity at 5 µg/mL (murine splenocytes [3]; Mus musculus, Splenocyte, 5 μg/ml, read-out: % MLR Control (percent of the control MLR response)): 25% | activity at 50 µg/mL (murine splenocytes [3]; Mus musculus, Splenocyte, 50 μg/ml, read-out: % MLR Control (percent of the control MLR response)): < 1% | activity at 500 µg/mL (murine splenocytes [3]; Mus musculus, Splenocyte, 500 μg/ml, read-out: % MLR Control (percent of the control MLR response)): < 1% | inhibition at 0.125 µg/mL ([4]; 0.125 μg/ml): 2% | inhibition at 0.25 µg/mL ([4]; 0.25 μg/ml): 12% | inhibition at 0.5 µg/mL ([4]; 0.5 μg/ml): 49% | inhibition at 1 µg/mL ([4]; 1.0 μg/ml): 75% | inhibition at 2.5 µg/mL ([4]; 2.5 μg/ml): 87% | inhibition at 5 µg/mL ([4]; 5 μg/ml): 88% | inhibition at 10 µg/mL ([4]; 10 μg/ml): 90% | inhibition at 20 µg/mL ([4]; 20 μg/ml): 92% | IC50 ([4]; read-out: IC50 (concentration resulting in 50% inhibition of proliferation)): 0.5 µg/mL (≈ 0.842 µM) | PHA (counts per minute of incorporated 3H-thymidine) ([5]; 6.3 μg/ml): 441580 Counts per minute | PHA (counts per minute of incorporated 3H-thymidine) ([5]; 12.5 μg/ml): 391633 Counts per minute | PHA (counts per minute of incorporated 3H-thymidine) ([5]; 25 μg/ml): 14425 Counts per minute | PHA (counts per minute of incorporated 3H-thymidine) ([5]; 50 μg/ml): 16984 Counts per minute | suppression of PHA stimulation of human PBL (in words) [5, 10]: suppressed | CPM (counts per minute of incorporated 3H-thymidine) ([6]; 0.4 μg/ml): 64211 CPM | CPM (counts per minute of incorporated 3H-thymidine) ([6]; 0.8 μg/ml): 49509 CPM | CPM (counts per minute of incorporated 3H-thymidine) ([6]; 1.6 μg/ml): 26336 CPM | CPM (counts per minute of incorporated 3H-thymidine) ([6]; 3.1 μg/ml): 8532 CPM | CPM (counts per minute of incorporated 3H-thymidine) ([6]; 6.3 μg/ml): 4996 CPM | CPM (counts per minute of incorporated 3H-thymidine) ([6]; 12.5 μg/ml): 2091 CPM | CPM (counts per minute of incorporated 3H-thymidine) ([6]; 25 μg/ml): 1728 CPM | CPM (counts per minute of incorporated 3H-thymidine) ([6]; 50 μg/ml): 1932 CPM | immunosuppressive activity in the human MLR (in words) ([6]; 50, 25, 12.5, 6.3, 3.1 and 1.6 μg/ml): immunosuppressive | Con A (counts per minute of incorporated 3H-thymidine) ([7]; 6.3 μg/ml): 299518 Counts per minute | Con A (counts per minute of incorporated 3H-thymidine) ([7]; 12.5 μg/ml): 213740 Counts per minute | Con A (counts per minute of incorporated 3H-thymidine) ([7]; 25 μg/ml): 11567 Counts per minute | Con A (counts per minute of incorporated 3H-thymidine) ([7]; 50 μg/ml): 10230 Counts per minute | suppression of Con A stimulation of human PBL (in words) [7, 10]: suppressed | toxicity in the murine assay (in words) (murine splenocytes [8]; 0.5 μg/ml): no associated toxicity | toxicity in the murine assay (in words) (murine splenocytes [8]; 500, 50 and 5 μg/ml): with associated toxicity | viability ([9]; 0.5 μg/ml): 151% | viability ([9]; 5 μg/ml): 68% | viability ([9]; 50 μg/ml): 26% | viability ([9]; 500 μg/ml): < 1%
